{
  "source": "patent US9700049B2",
  "about": "“Anthranilamides in combination with fungicides” (BAYER INTELLECTUAL PROPERTY GMBH, priority 2010, dated 2017)",
  "data": [
    {"system": "larvae of the armyworm (Spodoptera frugiperda)", "assay": "Spodoptera frugiperda larvae test", "type": "in vivo", "settings": "100 g/ha, applied individually, after 2 d", "method": "(§1) Spodoptera frugiperda Larvae Test\n(§2) Cabbage leaves (Brassica oleracea) are treated by being sprayed with wits the preparation of active compound of the desired concentration and are populated with larvae of the armyworm (Spodoptera frugiperda) while the leaves are still moist.", "units": {"Kill in % after 2d": "%"}, "values": [
      {"compound": "C=CCOC(Cn1ccnc1)c1ccc(Cl)cc1Cl", "note": "(centres unmarked) [imazalil]", "Kill in % after 2d": 0},
      {"compound": "Cc1nn(C)c(F)c1C(=O)Nc1ccccc1C(C)CC(C)C", "note": "(centres unmarked) [penflufen]", "Kill in % after 2d": 0}
    ]},
    {"system": "larvae of the armyworm (Spodoptera frugiperda)", "assay": "Spodoptera frugiperda larvae test", "type": "in vivo", "settings": "500 g/ha, applied individually, after 6 d", "method": "as §1, §2", "units": {"Kill in % after 6d": "%"}, "values": [
      {"compound": "fosetyl-aluminium", "Kill in % after 6d": 0}
    ]},
    {"system": "cotton aphid (Aphis gossypii)", "assay": "Aphis gossypii test", "type": "in vivo", "settings": "500 ppm, applied individually, after 1 d", "description": "(§3) The kill rates determined a.re entered into Colby's formula.", "units": {"Kill in % after 1d": "%"}, "values": [
      {"compound": "Cn1c(=O)c2sc3c(=O)n(C)c(=O)c3sc2c1=O", "note": "[2,6-DIMETHYL-1H,5H-[1,4]DITHIINO[2,3-C:5,6-C′]DIPYRROLE-1,3,5,7(2H,6H)-TETRONE]", "Kill in % after 1d": 0}
    ]},
    {"system": "cotton aphid (Aphis gossypii)", "assay": "Aphis gossypii test", "type": "in vivo", "settings": "500 ppm, applied individually, after 2 d", "description": "as §3", "units": {"Kill in % after 2d": "%"}, "values": [
      {"compound": "O=C(NCCc1ncc(C(F)(F)F)cc1Cl)c1ccccc1C(F)(F)F", "note": "[fluopyram]", "Kill in % after 2d": 0}
    ]},
    {"system": "cotton aphid (Aphis gossypii)", "assay": "Aphis gossypii test", "type": "in vivo", "settings": "500 ppm, applied individually, after 3 d", "description": "as §3", "units": {"Kill in % after 3 d": "%"}, "values": [
      {"compound": "Cn1c(=O)c2sc3c(=O)n(C)c(=O)c3sc2c1=O", "note": "[2,6-DIMETHYL-1H,5H-[1,4]DITHIINO[2,3-C:5,6-C′]DIPYRROLE-1,3,5,7(2H,6H)-TETRONE]", "Kill in % after 3 d": 0}
    ]},
    {"system": "green peach aphid (Myzus persicae)", "assay": "Myzus persicae test (run-off application)", "type": "in vivo", "settings": "500 ppm, applied individually", "description": "Myzus persicae Test (Run-Off Application)", "units": {"Kill in % after 1d": "%"}, "values": [
      {"compound": "Cn1c(=O)c2sc3c(=O)n(C)c(=O)c3sc2c1=O", "note": "[2,6-DIMETHYL-1H,5H-[1,4]DITHIINO[2,3-C:5,6-C′]DIPYRROLE-1,3,5,7(2H,6H)-TETRONE]", "Kill in % after 1d": 0}
    ]},
    {"system": "green peach aphid (Myzus persicae)", "assay": "Myzus persicae test (spray on infested cabbage leaves)", "type": "in vivo", "settings": "100 g/ha, applied individually, after 1 d", "units": {"Kill in % after 1d": "%"}, "values": [
      {"compound": "CO/C=C(/C(=O)OC)c1ccccc1Oc1cc(Oc2ccccc2C#N)ncn1", "note": "[azoxystrobin]", "Kill in % after 1d": 0},
      {"compound": "CC(C)C1CCC(Cc2ccc(Cl)cc2)C1(O)Cn1cncn1", "note": "(centres unmarked) [ipconazole]", "Kill in % after 1d": 0},
      {"compound": "COCC(=O)N(c1c(C)cccc1C)[C@H](C)C(=O)OC", "note": "[mefenoxam]", "Kill in % after 1d": 0},
      {"compound": "CNC(=O)/C(=N/OC)c1ccccc1Oc1ccccc1", "note": "[metominostrobin]", "Kill in % after 1d": 0},
      {"compound": "mancozeb", "Kill in % after 1d": 0}
    ]},
    {"system": "green peach aphid (Myzus persicae)", "assay": "Myzus persicae test (spray on infested cabbage leaves)", "type": "in vivo", "settings": "100 g/ha, applied individually, after 5 d", "units": {"Kill in % after 5d": "%"}, "values": [
      {"compound": "CC(C)Oc1cccc(NC(=O)c2ccccc2C(F)(F)F)c1", "note": "[flutolanil]", "Kill in % after 5d": 0},
      {"compound": "CC(C)(C)C(O)(CCc1ccc(Cl)cc1)Cn1cncn1", "note": "(centres unmarked) [tebuconazole]", "Kill in % after 5d": 0}
    ]},
    {"system": "larvae of the mustard beetle (Phaedon cochleariae)", "assay": "Phaedon cochleariae larvae test", "settings": "100 g/ha, applied individually, after 2 d", "units": {"Kill in % after 2d": "%"}, "values": [
      {"compound": "O=C(NCCc1ncc(C(F)(F)F)cc1Cl)c1ccccc1C(F)(F)F", "note": "[fluopyram]", "Kill in % after 2d": 0}
    ]},
    {"system": "larvae of the mustard beetle (Phaedon cochleariae)", "assay": "Phaedon cochleariae larvae test", "settings": "100 g/ha, applied individually, after 5 d", "units": {"Kill in % after 5d": "%"}, "values": [
      {"compound": "CO/C=C(/C(=O)OC)c1ccccc1Oc1cc(Oc2ccccc2C#N)ncn1", "note": "[azoxystrobin]", "Kill in % after 5d": 0},
      {"compound": "O=C(NCc1ncc(C(F)(F)F)cc1Cl)c1c(Cl)cccc1Cl", "note": "[fluopicolide]", "Kill in % after 5d": 0},
      {"compound": "N#Cc1ccccc1NC(=O)c1snc(Cl)c1Cl", "note": "[isotianil]", "Kill in % after 5d": 0},
      {"compound": "COCC(=O)N(c1c(C)cccc1C)[C@H](C)C(=O)OC", "note": "[mefenoxam]", "Kill in % after 5d": 0},
      {"compound": "Cc1nn(C)c(F)c1C(=O)Nc1ccccc1C(C)CC(C)C", "note": "(centres unmarked) [penflufen]", "Kill in % after 5d": 0},
      {"compound": "Cn1cc(C(=O)Nc2ccccc2C2CC2C2CC2)c(C(F)F)n1", "note": "(centres unmarked) [sedaxane]", "Kill in % after 5d": 0},
      {"compound": "mancozeb", "Kill in % after 5d": 0}
    ]},
    {"system": "larvae of the mustard beetle (Phaedon cochleariae)", "assay": "Phaedon cochleariae larvae test", "settings": "Phaedon cochleariae, 120 h, read-out: Kill in % after 5d", "units": {"pest or weed control at 100 g/ha": "%"}, "values": [
      {"compound": "O=C(Nc1ccccc1-c1ccc(Cl)cc1)c1cccnc1Cl", "note": "[boscalid]", "pest or weed control at 100 g/ha": 0},
      {"compound": "CCC1(C(=O)N[C@H](C)c2ccc(Cl)cc2)C(C)C1(Cl)Cl", "note": "(some centres unmarked) [carpropamid]", "pest or weed control at 100 g/ha": 0},
      {"compound": "CSC1=N[C@@](C)(c2ccccc2)C(=O)N1Nc1ccccc1", "note": "[fenamidone]", "pest or weed control at 100 g/ha": 0},
      {"compound": "N#Cc1c[nH]cc1-c1cccc2c1OC(F)(F)O2", "note": "[fludioxonil]", "pest or weed control at 100 g/ha": 0},
      {"compound": "CO/N=C(/C1=NOCCO1)c1ccccc1Oc1ncnc(Oc2ccccc2Cl)c1F", "note": "[fluoxastrobin]", "pest or weed control at 100 g/ha": 0},
      {"compound": "O=c1c2cc(F)ccc2nc(-n2cncn2)n1-c1ccc(Cl)cc1Cl", "note": "[fluquinconazole]", "pest or weed control at 100 g/ha": 0},
      {"compound": "CC(C)Oc1cccc(NC(=O)c2ccccc2C(F)(F)F)c1", "note": "[flutolanil]", "pest or weed control at 100 g/ha": 0},
      {"compound": "C=CCOC(Cn1ccnc1)c1ccc(Cl)cc1Cl", "note": "(centres unmarked) [imazalil]", "pest or weed control at 100 g/ha": 0},
      {"compound": "CC(C)C1CCC(Cc2ccc(Cl)cc2)C1(O)Cn1cncn1", "note": "(centres unmarked) [ipconazole]", "pest or weed control at 100 g/ha": 0},
      {"compound": "COCC(=O)N(c1c(C)cccc1C)C(C)C(=O)OC", "note": "(centres unmarked) [metalaxyl]", "pest or weed control at 100 g/ha": 0},
      {"compound": "O=C(Nc1ccccc1)N(Cc1ccc(Cl)cc1)C1CCCC1", "note": "[pencycuron]", "pest or weed control at 100 g/ha": 0},
      {"compound": "OC(Cc1ccccc1Cl)(Cn1nc[nH]c1=S)C1(Cl)CC1", "note": "(centres unmarked) [prothioconazole]", "pest or weed control at 100 g/ha": 0},
      {"compound": "CC(C)(C)C(O)(CCc1ccc(Cl)cc1)Cn1cncn1", "note": "(centres unmarked) [tebuconazole]", "pest or weed control at 100 g/ha": 0},
      {"compound": "CC(C)(C)C(O)C(Oc1ccc(Cl)cc1)n1cncn1", "note": "(centres unmarked) [triadimenol]", "pest or weed control at 100 g/ha": 0},
      {"compound": "O=[n+]1[n-]c(-n2ccnc2)nc2ccc(Cl)cc21", "note": "[triazoxide]", "pest or weed control at 100 g/ha": 0},
      {"compound": "CON=C(C(=O)OC)c1ccccc1CON=C(C)c1cccc(C(F)(F)F)c1", "note": "[trifloxystrobin]", "pest or weed control at 100 g/ha": 0}
    ]}
  ]
}
